Data reported in ChEMBL document CHEMBL5712891, “Inhibition of BET bromodomain-dependent XIAP and FLIP expression sensitizes KRAS-mutated NSCLC to pro-apoptotic agents” (Cell Death Dis, 2016).
Active and inactive are the calls of the source. The rule behind the calls is not given here.

Assays:
[1] = test system: DV-90; experiment: Induction of cell cycle arrest in human DV-90 cells assessed as accumulation of cells at G0/G1 phase at 1 uM for 24 hrs by Click-iT EdU Alexa Fluor 647 flow cytometric assay kit analysis (reference value: 47%); format: functional
[2] = test system: DV-90; experiment: Induction of apoptosis in human DV-90 cells assessed as late apoptotic cells at 2.5 uM for 24 hrs by annexin V-PI staining based flow cytometric analysis (reference value: 8.7%); format: functional
[3] = test system: A549; experiment: Induction of apoptosis in human A549 cells assessed as viable cells at 0.5 uM for 24 hrs by annexin V-PI staining based flow cytometric analysis (reference value: 97.7%); format: functional; conditions: read-out: Activity
[4] = test system: NCI-H1373; experiment: Induction of apoptosis in human NCI-H1373 cells assessed as necrotic cells at 0.5 uM for 24 hrs by annexin V-PI staining based flow cytometric analysis (reference value: 4.4%); format: functional
[5] = test system: NCI-H460; experiment: Induction of apoptosis in human NCI-H460 cells assessed as early apoptotic cells at 2.5 uM for 24 hrs by annexin V-PI staining based flow cytometric analysis (reference value: 0.3%); format: functional
[6] = test system: DV-90; experiment: Induction of apoptosis in human DV-90 cells assessed as early apoptotic cells at 0.5 uM for 48 hrs by annexin V-PI staining based flow cytometric analysis (reference value: 1.0%)
[7] = test system: DV-90; experiment: Induction of cell cycle arrest in human DV-90 cells assessed as accumulation of cells at S phase at 0.1 uM for 24 hrs by Click-iT EdU Alexa Fluor 647 flow cytometric assay kit analysis (reference value: 30%); format: functional
[8] = test system: NCI-H1373; experiment: Induction of cell cycle arrest in human NCI-H1373 cells assessed as accumulation of cells at S phase at 1 uM for 24 hrs by DAPI staining analysis (reference value: 40%); format: functional
[9] = test system: DV-90; experiment: Induction of apoptosis in human DV-90 cells assessed as late apoptotic cells at 0.5 uM for 24 hrs by annexin V-PI staining based flow cytometric analysis (reference value: 11.4%); format: functional
[10] = test system: DV-90; experiment: Induction of apoptosis in human DV-90 cells assessed as necrotic cells at 0.5 uM for 24 hrs by annexin V-PI staining based flow cytometric analysis (reference value: 5.4%); format: functional
[11] = test system: A549; experiment: Induction of apoptosis in human A549 cells assessed as viable cells at 0.5 uM for 24 hrs by annexin V-PI staining based flow cytometric analysis (reference value: 96%); format: functional; conditions: read-out: Activity
[12] = test system: DV-90; experiment: Downregulation of […] gene in human DV-90 cells after 24 hrs by microarray profiling analysis; format: functional, cell-based
[13] = test system: NCI-H358; experiment: Downregulation of c-MYC mRNA expression level in human NCI-H358 cells at 0.1 to 1 uM for 24 hrs by qRT-PCR analysis; format: functional, cell-based; conditions: dose 0.1-1 µM
[14] = test system: NCI-H441; experiment: Downregulation of XIAP mRNA expression level in human NCI-H441 cells at 0.1 to 1 uM for 24 hrs by qRT-PCR analysis; format: functional, cell-based; conditions: dose 0.1-1 µM
[15] = test system: NCI-H460; experiment: Downregulation of XIAP mRNA expression level in human NCI-H460 cells at 0.1 to 1 uM for 24 hrs by qRT-PCR analysis; format: functional, cell-based; conditions: dose 0.1-1 µM
[16] = test system: NCI-H358; experiment: Downregulation of XIAP mRNA expression level in human NCI-H358 cells at 0.1 to 1 uM for 24 hrs by qRT-PCR analysis; format: functional, cell-based; conditions: dose 0.1-1 µM
[17] = test system: NCI-H2347; experiment: Downregulation of XIAP mRNA expression level in human NCI-H2347 cells at 0.1 to 1 uM for 24 hrs by qRT-PCR analysis; format: functional, cell-based; conditions: dose 0.1-1 µM
[18] = test system: NCI-H1373; experiment: Downregulation of XIAP protein expression level in human NCI-H1373 cells at 1 uM for 24 hrs by […] analysis; format: functional, cell-based
[19] = test system: DV-90; experiment: Downregulation of c-MYC protein expression level in human DV-90 cells at 1 uM for 24 hrs by […] analysis; format: functional, cell-based
[20] = test system: NCI-H460; experiment: Downregulation of c-MYC protein expression level in human NCI-H460 cells at 1 uM for 24 hrs by […] analysis; format: functional, cell-based
[21] = test system: NCI-H1373; experiment: Induction of TRAIL dependent apoptosis in human NCI-H1373 cells assessed as viable cells at 1 uM by annexin V-PI staining based flow cytometric analysis (reference value: 87.6%); format: functional; conditions: read-out: Activity
[22] = test system: NCI-H1373; experiment: Induction of TRAIL dependent apoptosis in human NCI-H1373 cells assessed as late apoptotic cells at 1 uM in presence of […] by annexin V-PI staining based flow cytometric analysis (reference value: 8.3%); format: functional

Structure (SMILES): Cc1sc2c(c1C)C(c1ccc(Cl)cc1)=N[C@@H](CC(=O)Nc1ccc(O)cc1)c1nnc(C)n1-2 [BIRABRESIB]
- Activity [1]: 60%
- Activity [2]: 13.5%
- viability at 0.5 µM [3]: 98.1%
- Activity [4]: 9.6%
- Activity [5]: 0.6%
- Activity [6]: 2.8%

Structure (SMILES): CCNC(=O)C[C@@H]1N=C(c2ccc(Cl)cc2)c2cc(OC)ccc2-n2c(C)nnc21 [MOLIBRESIB]
- Activity [7]: 27%

Structure (SMILES): Cc1sc2c(c1C)C(c1ccc(Cl)cc1)=N[C@@H](CC(=O)OC(C)(C)C)c1nnc(C)n1-2
- Activity [8]: 7%
- Activity [9]: 10.7%
- Activity [10]: 25.4%
- viability at 0.5 µM [11]: 97.2%
- Activity [12]: Active
- Activity [13]: Active
- Activity [14]: Active
- Activity [15]: Active
- Activity [16]: Active
- Activity [17]: Active
- Activity [18]: Active
- Activity [19]: Active
- Activity [20]: Active
- viability at 1 µM [21]: 64.4%
- Activity [22]: 35.9%
